Laboratory results from PubChem BioAssay AID248 (DTP/NCI, 2004).
Inconclusive results and toxic doses are left out. Rule as the data show it: active = T/C of 150% or more; inactive = T/C below 125%.

Test system: L1210 leukemia ip in BDF1 mice, survival T/C
Experiment: NCI In Vivo Anticancer Drug Screen. Data for tumor model L1210 Leukemia (intraperitoneal) in B6D2F1 (BDF1) mice
Settings: endpoint: mean survival time, higher = longer survival
How it was run: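 Mice bearing the transplanted tumor received compound or vehicle. Survival of the treated group was divided by that of the vehicle-treated control group to give the ratio.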

Measured: T/C

COc1ccc(CCCCO)cc1
inactive: dose: 100.0 mg/kg/injection, schedule: Q01DX001 (ip), vehicle: acetone 96 % of control | dose: 200.0 mg/kg/injection, schedule: Q01DX001 (ip), vehicle: acetone 102 % of control | dose: 400.0 mg/kg/injection, schedule: Q01DX001 (ip), vehicle: acetone 86 % of control

COc1cccc(C=O)c1[N+](=O)[O-]
inactive: dose: 100.0 mg/kg/injection, schedule: Q04DX002 (ip), vehicle: Klucel (hydroxypropylcellulose) (HPC) 104 % of control | dose: 200.0 mg/kg/injection, schedule: Q04DX002 (ip), vehicle: Klucel (hydroxypropylcellulose) (HPC) 108 % of control | dose: 400.0 mg/kg/injection, schedule: Q04DX002 (ip), vehicle: Klucel (hydroxypropylcellulose) (HPC) 97 % of control

C(=N\Nc1nnc(N/N=C/C2CCCCC2)c2ccccc12)/C1CCCCC1
inactive: dose: 50.0 mg/kg/injection, schedule: Q01DX001 (ip), vehicle: saline 100 % of control

O=C(Nc1ccccc1)N(O)c1ccccc1
inactive: dose: 9.0 mg/kg/injection, schedule: Q01DX015 (ip), vehicle: methylcellulose (MC) 97 % of control | dose: 18.0 mg/kg/injection, schedule: Q01DX015 (ip), vehicle: methylcellulose (MC) 97 % of control | dose: 25.0 mg/kg/injection, schedule: Q01DX015 (ip), vehicle: methylcellulose (MC) 112 % of control | dose: 37.5 mg/kg/injection, schedule: Q01DX015 (ip), vehicle: methylcellulose (MC) 95 % of control | dose: 50.0 mg/kg/injection, schedule: Q01DX015 (ip), vehicle: methylcellulose (MC) 103 % of control | dose: 100.0 mg/kg/injection, schedule: Q01DX015 (ip), vehicle: methylcellulose (MC) 103 % of control | dose: 200.0 mg/kg/injection, schedule: Q01DX015 (ip), vehicle: methylcellulose (MC) 101 % of control
